According to patent publication US9643967B2, “Pyrrolo[3,2-c]pyridine derivatives as TLR inhibitors” (TAKEDA PHARMACEUTICAL COMPANY LIMITED, priority 2013, dated 2017):

The compounds below were run against T1, hTLR9 (Homo sapiens, UniProt Q9NR96) (assay: hTLR9 antagonism (SEAP inhibition assay) in HEK-Blue-hTLR9 (HEK293) cells, ODN-2006 stimulated). Details: HEK-Blue hTLR9, 1 μM; SEAP, HEK-Blue-hTLR9 cells; read-out: hTLR9 inhibitory activity (% at 1 μM).
T1 construct: expressed in transfected cells; host or cells: HEK-Blue-hTLR9 cells (HEK293)
T1 sequence (Q9NR96 26-1032): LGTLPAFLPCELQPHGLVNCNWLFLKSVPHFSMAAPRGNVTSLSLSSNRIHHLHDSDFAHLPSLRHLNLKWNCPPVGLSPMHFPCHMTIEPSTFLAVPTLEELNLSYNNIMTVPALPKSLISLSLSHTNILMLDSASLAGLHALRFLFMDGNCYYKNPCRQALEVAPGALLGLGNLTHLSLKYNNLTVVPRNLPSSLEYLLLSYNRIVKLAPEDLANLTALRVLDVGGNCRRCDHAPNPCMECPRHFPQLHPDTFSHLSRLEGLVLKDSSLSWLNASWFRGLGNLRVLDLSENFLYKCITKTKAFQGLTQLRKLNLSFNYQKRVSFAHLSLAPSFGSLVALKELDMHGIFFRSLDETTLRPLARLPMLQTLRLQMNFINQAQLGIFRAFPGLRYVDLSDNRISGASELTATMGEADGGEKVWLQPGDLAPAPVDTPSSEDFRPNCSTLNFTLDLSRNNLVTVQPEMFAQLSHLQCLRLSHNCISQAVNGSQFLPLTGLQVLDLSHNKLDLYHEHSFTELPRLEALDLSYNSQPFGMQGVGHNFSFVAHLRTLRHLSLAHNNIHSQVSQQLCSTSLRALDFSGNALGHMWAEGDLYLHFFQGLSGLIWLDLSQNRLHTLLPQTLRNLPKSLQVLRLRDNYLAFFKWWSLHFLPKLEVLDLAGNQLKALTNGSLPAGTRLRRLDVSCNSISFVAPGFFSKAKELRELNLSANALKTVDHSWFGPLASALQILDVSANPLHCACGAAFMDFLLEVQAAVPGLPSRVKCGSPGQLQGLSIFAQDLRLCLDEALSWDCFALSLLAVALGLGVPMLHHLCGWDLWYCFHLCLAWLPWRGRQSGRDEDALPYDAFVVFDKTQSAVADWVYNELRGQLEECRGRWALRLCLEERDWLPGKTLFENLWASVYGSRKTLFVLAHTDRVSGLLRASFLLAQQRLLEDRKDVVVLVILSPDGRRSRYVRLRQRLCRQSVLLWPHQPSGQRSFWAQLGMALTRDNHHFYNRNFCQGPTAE
Assay type: cell-based
Procedure: hTLR9 Antagonism (SEAP Inhibition Assay) in HEK293 Cell Lines
The SEAP reporter gene in HEK-Blue™-hTLR9 cells is placed under the control of the IFN-b minimal promoter fused to five NF-kB and AP-1 binding sites. The stimulation with a TLR9 ligand (ODN-2006) activates NF-kB and AP-1 which induces the production of SEAP. Levels of SEAP are determined with QUANTI-Blue™ detection medium that turns purple/blue in the presence of alkaline phosphatase. Decrease in the levels of SEAP production as indicated by reduction in absorbance at 650 nm is directly co-related with the TLR9 inhibitory activity of the antagonist (NCE).
HEK-Blue™-hTLR9 cells were maintained in DMEM with 10% FBS, 1% Penicillin/Streptomycin/Amphotericin (complete growth medium) and 0.2% Normocin. For the assay, cells were dissociated by washing in 1×PBS and re-suspended in complete DMEM. Cells were seeded at a density of 20000 cells per well; (40 μl per well) in a 384 well assay plate.
5 μl of 10× antagonist (NCE) was added to the cells in triplicates for each concentration. The plate was incubated for half an hour at 37° C. with 5% CO2. 5 μl of agonist (ODN-2006) was added and the plate was incubated overnight for 18 hours at 37° C. with 5% CO2. 5 μl of supernatant was transferred to a 384 well reading plate and to this 45 μl of Quanti-Blue™ detection reagent was added. The plate was then incubated for an hour at 37° C. SEAP activity in the supernatant was indicated by change in the pink color of Quanti-Blue™ detection reagent to purple/blue and the absorbance was read at 650 nm in the end point mode.

Q: `Cc1cc2[nH]c(CN3CCOCC3)cc2c(-c2ccc(N3CCN(C(C)C)CC3)cc2)n1` [Example A4, 4-[[4-[4-[4-isopropylpiperazin-1-yl)phenyl]-6-methyl-1H-pyrrolo[3,2-c]pyridin-2-yl]methyl] morpholine] was tested. Which inhibition at 1 µM did it give?
A: 100%

Q: Which inhibition at 1 µM does the source give for `CC(C)N1CCN(c2ccc(-c3nccc4[nH]c(CN5CC(F)C5)cc34)cc2)CC1` [Example A16, 2-[(3-fluoroazetidin-1-yl)methyl]-4-[4-(4-isopropylpiperazin-1-yl)phenyl]-1H-pyrrolo[3,2-c]pyridine] here?
A: 100%

Q: How did the inhibition at 1 µM turn out when `CC(C)N1CCC(c2ccc(-c3nccc4[nH]c(CN5CCOCC5)cc34)cn2)CC1` [Example A64, 4-[[4-[6-(1-isopropyl-4-piperidyl)-3-pyridyl]-1H-pyrrolo[3,2-c]pyridin-2-yl]methyl]morpholine] was run?
A: 73%

Q: How did the inhibition at 1 µM turn out when `Cc1cc2c(cc(CCN3CCOCC3)n2C)c(-c2ccc(C3CCN(C(C)C)CC3)cc2)n1` [Example B31, 4-[2-[4-[4-(1-isopropyl-4-piperidyl)phenyl]-1,6-dimethyl-pyrrolo[3,2-c]pyridin-2-yl]ethyl]morpholine] was run?
A: 99.4%

Q: For `CN1CCN(c2cccc(-c3nccc4[nH]c(CN5CCOCC5)cc34)c2)CC1` [Example A61, 4-[[4-[3-(4-methylpiperazin-1-yl)phenyl]-1H-pyrrolo[3,2-c]pyridin-2-yl]methyl]morpholine], which inhibition at 1 µM is on record?
A: 89.5%

Q: Which inhibition at 1 µM does the source give for `Cc1nc(-c2ccc(N3CCN(C(C)C)CC3)cc2)c2cc(CCN3CCCC3)[nH]c2c1C` [Example B10, 4-[4-(4-isopropylpiperazin-1-yl)phenyl]-6,7-dimethyl-2-(2-pyrrolidin-1-ylethyl)-1H-pyrrolo[3,2-c]pyridine] here?
A: 93.1%

Q: `CC(C)N1CCN(c2ccc(-c3nccc4[nH]c(CCN5CCOCC5)cc34)cc2)CC1` [Example B1, 4-[2-[4-[4-(4-isopropylpiperazin-1-yl)phenyl]-1H-pyrrolo[3,2-c]pyridin-2-yl]ethyl]morpholine] was tested. Which inhibition at 1 µM did it give?
A: 100%

Q: `COc1cc(-c2nc(C)cc3c2cc(CCN2CCOCC2)n3C)ccc1N1CCN(C(C)C)CC1` [Example B22, 4-[2-[4-[4-(4-isopropylpiperazin-1-yl)-3-methoxy-phenyl]-1,6-dimethyl-pyrrolo[3,2-c]pyridin-2-yl]ethyl]morpholine] was tested. Which inhibition at 1 µM did it give?
A: 99.7%

Q: How did the inhibition at 1 µM turn out when `CCN1CCN(c2ccc(-c3nccc4[nH]c(CN5CCOCC5)cc34)cc2)CC1` [Example A3, 4-[[4-[4-(4-ethylpiperazin-1-yl)phenyl]-1H-pyrrolo[3,2-c]pyridin-2-yl]methyl] morpholine] was run?
A: 100%

Q: With `CN1CCN(c2ccc(-c3nccc4[nH]c(CN5CCOCC5)cc34)cc2)CC1` [Example A2, 4-[[4-[4-(4-methylpiperazin-1-yl)phenyl]-1H-pyrrolo[3,2-c]pyridin-2-yl]methyl] morpholine] as the compound, how does the inhibition at 1 µM read?
A: 100%

Q: `CC(C)N1CCN(c2ccc(-c3nccc4[nH]c(CCCN5CCOCC5)cc34)cc2)CC1` [Example C1, 4-[3-[4-[4-(4-isopropylpiperazin-1-yl)phenyl]-1H-pyrrolo[3,2-c]pyridin-2-yl]propyl]morpholine] was tested. Which inhibition at 1 µM did it give?
A: 99.2%

Q: Which inhibition at 1 µM does the source give for `Cc1nc(-c2ccc(N3CCN(C(C)C)CC3)cc2)c2cc(CN3CCOCC3)[nH]c2c1C` [Example A36, 4-[[4-[4-(4-isopropylpiperazin-1-yl)phenyl]-6,7-dimethyl-1H-pyrrolo[3,2-c]pyridin-2-yl]methyl] morpholine] here?
A: 96.7%

Q: How did the inhibition at 1 µM turn out when `CC(C)N1CCN(c2ccc(-c3nccc4[nH]c(CN5CCCCC5)cc34)cc2)CC1` [Example A17, 4-[4-(4-isopropylpiperazin-1-yl)phenyl]-2-(1-piperidylmethyl)-1H-pyrrolo[3,2-c]pyridine] was run?
A: 100%

Q: How did the inhibition at 1 µM turn out when `Cc1cc2[nH]c(CN3CCC4(CC3)CC(C)C4)cc2c(-c2ccc(N3CCN(C(C)C)CC3)cc2)n1` [Example A30, 4-[4-(4-isopropylpiperazin-1-yl)phenyl]-6-methyl-2-[(2-methyl-7-azaspiro[3.5]nonan-7-yl)methyl]-1H-pyrrolo[3,2-c]pyridine] was run?
A: 96.7%

Q: For `Cc1cc2[nH]c(CN3CCC4(CC3)CC(O)C4)cc2c(-c2ccc(N3CCN(C(C)C)CC3)cc2)n1` [Example A29, 7-[[4-[4-(4-isopropylpiperazin-1-yl)phenyl]-6-methyl-1H-pyrrolo[3,2-c]pyridin-2-yl]methyl]-7-azaspiro[3.5] nonan-2-ol], which inhibition at 1 µM is on record?
A: 100%

Q: `Cc1cc2c(cc(CCN3CCOCC3)n2C)c(-c2ccc(N3CCN(C(C)C)CC3)c(F)c2)n1` [Example B14, 4-[2-[4-[3-fluoro-4-(4-isopropylpiperazin-1-yl)phenyl]-1,6-dimethyl-pyrrolo[3,2-c]pyridin-2-yl]ethyl]morpholine] was tested. Which inhibition at 1 µM did it give?
A: 88.7%

Q: Which inhibition at 1 µM does the source give for `CN1CCN(c2ccc(-c3nc(C4CC4)cc4[nH]c(CN5CCOCC5)cc34)cc2)CC1` [Example A34, 4-[[6-cyclopropyl-4-[4-(4-methylpiperazin-1-yl)phenyl]-1H-pyrrolo[3,2-c]pyridin-2-yl]methyl] morpholine] here?
A: 82%

Q: How did the inhibition at 1 µM turn out when `c1cc2[nH]c(CN3CCOCC3)cc2c(-c2ccc(N3CCN(C4COC4)CC3)cc2)n1` [Example A81, 4-[[4-[4-[4-(oxetan-3-yl)piperazin-1-yl]phenyl]-1H-pyrrolo[3,2-c]pyridin-2-yl]methyl]morpholine] was run?
A: 64%

Q: With `CN1CCN(c2ccc(-c3nccc4c3cc(CN3CCOCC3)n4C)cc2)CC1` [Example A9, 4-[[1-methyl-4-[4-(4-methylpiperazin-1-yl)phenyl]pyrrolo[3,2-c]pyridin-2-yl]methyl] morpholine] as the compound, how does the inhibition at 1 µM read?
A: 100%

Q: With `CN1CCN(Cc2ccc(-c3nccc4[nH]c(CN5CCOCC5)cc34)cc2)CC1` [Example A60, 4-[[4-[4-[(4-methylpiperazin-1-yl)methyl]phenyl]-1H-pyrrolo[3,2-c]pyridin-2-yl]methyl]morpholine] as the compound, how does the inhibition at 1 µM read?
A: 86%

Q: For `CC(C)N1CCN(c2ccc(-c3nccc4c3cc(CN3CCOCC3)n4C)cc2)CC1` [Example A8, 4-[[4-[4-(4-isopropylpiperazin-1-yl)phenyl]-1-methyl-pyrrolo[3,2-c]pyridin-2-yl]methyl] morpholine], which inhibition at 1 µM is on record?
A: 100%

Q: Which inhibition at 1 µM does the source give for `Cc1cc2c(cc(CCN3CCOCC3)n2C)c(-c2ccc(N3CCN(C(C)C)CC3)cc2C(F)(F)F)n1` [Example B17, 4-[2-[4-[4-(4-isopropylpiperazin-1-yl)-2-(trifluoromethyl)phenyl]-1,6-dimethyl-pyrrolo[3,2-c]pyridin-2-yl]ethyl]morpholine] here?
A: 91.5%

Q: Which inhibition at 1 µM does the source give for `CC(C)N1CCC(Oc2ccc(-c3nccc4[nH]c(CN5CCOCC5)cc34)cc2)CC1` [Example A56, 4-[[4-[4-[(1-isopropyl-4-piperidyl)oxy]phenyl]-1H-pyrrolo[3,2-c]pyridin-2-yl]methyl]morpholine] here?
A: 99.5%

Q: `CN1CCN(c2ccc(-c3nccc4[nH]c(CCCN5CCOCC5)cc34)cc2)CC1` [Example C2, 4-[3-[4-[4-(4-methylpiperazin-1-yl)phenyl]-1H-pyrrolo[3,2-c]pyridin-2-yl]propyl]morpholine] was tested. Which inhibition at 1 µM did it give?
A: 100%

Q: For `COc1cc(N2CCN(C(C)C)CC2)ccc1-c1nc(C)cc2c1cc(CCN1CCOCC1)n2C` [Example B20, 4-[2-[4-[4-(4-isopropylpiperazin-1-yl)-2-methoxy-phenyl]-1,6-dimethyl-pyrrolo[3,2-c]pyridin-2-yl]ethyl]morpholine], which inhibition at 1 µM is on record?
A: 100%
